Patent US6936628B2, “Oral administration of epothilones” (Bristol-Myers Squibb Company, priority 2002, dated 2005)
Values joined by “and” are separate entries in the source; they are usually repeats but may differ in a detail not shown here. Equal entries are not always repeated. Where two headings read alike, the source gives them in different places.

Legend:
CYP1A2 = target: T1, CYP1A2 (Homo sapiens, UniProt P05177); assay: Inhibition of human CYP enzymes, CYP1A2
T1 sequence (P05177 1-516): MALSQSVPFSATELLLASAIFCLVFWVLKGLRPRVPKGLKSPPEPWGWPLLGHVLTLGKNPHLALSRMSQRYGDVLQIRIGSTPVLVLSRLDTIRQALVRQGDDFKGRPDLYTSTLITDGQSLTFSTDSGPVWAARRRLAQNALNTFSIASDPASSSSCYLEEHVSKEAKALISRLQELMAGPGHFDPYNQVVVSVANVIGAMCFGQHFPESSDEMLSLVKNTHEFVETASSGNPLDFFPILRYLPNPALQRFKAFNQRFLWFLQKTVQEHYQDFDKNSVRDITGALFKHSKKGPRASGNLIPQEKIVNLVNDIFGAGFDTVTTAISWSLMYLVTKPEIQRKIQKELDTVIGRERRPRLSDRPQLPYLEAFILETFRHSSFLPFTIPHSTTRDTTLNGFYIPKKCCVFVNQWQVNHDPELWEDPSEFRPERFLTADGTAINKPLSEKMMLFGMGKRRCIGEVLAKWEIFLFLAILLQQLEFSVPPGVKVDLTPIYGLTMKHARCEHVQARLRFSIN

[1] = Oral bioavailability in humans; settings: in vivo, human patients
From the text: Compound A was well absorbed orally, providing a favorable drug exposure profile that is consistant with efficacious exposure in preclinical cancer models.

[2] = test system: panel of tumor cell lines; assay: In vitro cytotoxicity assay (MTS), panel of tumor cell lines; assay type: cell-based; settings: Homo sapiens; 7 of the 8 cell lines tested, 72-hour incubation
[3] = test system: Pat-26 human pancreatic carcinoma; settings: mouse, in vivo
[4] = Microsomal incubation, dog; settings: dog liver microsomes + NADPH, 20 μM
in vivo = settings: male, Sprague-Dawley, rat, plasma, 2 mg/kg, rats, IA 2 mg/kg
From the text: A total of eight rats were divided into four groups (three IA groups and one oral group), with two rats in each group. […] The vehicle used for the oral administration was propylene glycol:ethanol:phophate buffer, 1 M, pH 8 (58:12:30).

[5] = Effects of formulation on antitumor efficacy; assay type: in vivo
[6] = Stability of aqueous solution (time for 5% drug loss, t95); assay type: physicochemical; settings: 37° C.
[7] = Microsomal incubation, rat; settings: rat liver microsomes + NADPH, 20 μM
Pharmacokinetics in mice = assay type: in vivo; settings: nude mice
Description: The pharmacokinetics of Compound A was evaluated in nude mice after IV (5 mg/kg) and oral (15 mg/kg) administration (n=15 mice/group). Compound A was dissolved in a mixture of cremophor:ethanol:water (10:10:80) and cremophor:ethanol:phosphate buffer, pH 8 (10:10:80) for the preparation of IV and oral doses, respectively. Plasma concentrations of Compound A were determined at 10 and 45 min, and 2, 4, and 6 hours postdose from 3 mice/time point/group. Composite plasma concentration-time profiles were constructed for pharmacokinetic analysis. […] The VSS values was 38 L/kg which is greater than total body water of about 0.7 L/kg, indicating significant extravascular distribution. The T-HALF value, both after IV and oral administration, was 3.3 h.

[8] = Water solubility (statement); assay type: physicochemical
Description: For these reasons Compound A may be formulated in an entirely aqueous excipient system for parenteral administration. To determine whether differences in the dosing vehicle may affect the antitumor activity of Compound A, a direct head-to-head comparison of the antitumor efficacy of Compound A formulated in either cremophor/ethanol/water (10:10:80, v/v/v) or sodium acetate buffer (30 mM, pH 5.0) was conducted. No formulation related effect was observed.

[9] = test system: sc Pat-7 human ovarian carcinoma; assay: Minimum effective infusional dose regimen versus sc Pat-7; assay type: in vivo, mice; settings: constant-rate IV infusion over 10 hr
[10] = Plasma apparent steady-state concentration after 10-h IV infusion
[11] = vehicle 1 versus vehicle 2
Description: In another pharmacokinetic study, fasted male Sprague-Dawley rats, assigned to two IA groups (2 mg/kg) and one oral (8 mg/kg) group (n=3/group), were administered a single dose of Compound A. Compound A was prepared for IA administration in two separate vehicles: vehicle 1, cremophor:ethanol:water (10:10:80), and vehicle 2, ethanol:phosphate buffer, 0.05 M, pH 7.4 (6:94). The vehicle for the oral administration was ethanol:phosphate buffer, 0.3 M, pH 8 (18:82). Samples were collected at 10, 15, 30, and 45 min, and at 1, 2, 4, 6, 8, 10, 24, and 48 hours after dosing.

human CYP2C19 = human CYP2C19 (Homo sapiens, UniProt P33261); assay: biochemical
Chain of human CYP2C19 (P33261 whole entry): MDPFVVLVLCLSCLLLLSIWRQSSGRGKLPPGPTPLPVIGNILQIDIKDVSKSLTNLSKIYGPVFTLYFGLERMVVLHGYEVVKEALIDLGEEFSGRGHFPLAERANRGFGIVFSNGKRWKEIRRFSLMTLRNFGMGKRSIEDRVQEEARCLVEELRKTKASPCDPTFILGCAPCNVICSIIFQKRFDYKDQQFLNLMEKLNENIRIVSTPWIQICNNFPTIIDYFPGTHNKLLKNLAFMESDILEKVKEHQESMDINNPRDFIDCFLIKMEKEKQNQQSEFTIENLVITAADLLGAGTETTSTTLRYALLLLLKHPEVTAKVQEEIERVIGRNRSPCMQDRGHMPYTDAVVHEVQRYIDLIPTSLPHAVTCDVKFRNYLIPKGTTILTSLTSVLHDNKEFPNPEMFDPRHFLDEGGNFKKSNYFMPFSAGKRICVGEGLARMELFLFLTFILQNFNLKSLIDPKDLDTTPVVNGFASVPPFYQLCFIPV

[12] = Stability in dog EDTA plasma and whole blood; assay type: in vitro ADME
Description: Plasma samples from exploratory pharmacokinetic studies were analyzed for Compound A concentrations using an LC/MS/MS assay with a standard curve range of 3.9 to 2000 ng/mL. In pharmacodynamic studies, Compound A concentrations were determined using an LC/MS/MS assay with a standard curve range of 10-40000 nM (5.23-20920 ng/mL) in mouse plasma. For toxicology studies, validated LC/MS/MS assays were used to determine the concentrations of Compound A in rat and dog plasma. Analytical data management for the validated assays was carried out using Watson®. The standard curve range for the validated assay in both matrices was 2 to 500 ng/mL of Compound A. The coefficient of variation for the inter- and intra-assay precision in rat and dog plasma was within 9% and the accuracy was greater than 92%. […] Compound A was stable for at least 4 months at !20EC and through at least 3 freeze-thaw cycles in rat and dog EDTA plasma. In addition, Compound A was stable in fresh rat and dog EDTA whole blood for at least 1 h at 4EC.

CYP2D6 = CYP2D6 (Homo sapiens, UniProt P10635); assay: Inhibition of human CYP enzymes, CYP2D6
Chain of CYP2D6 (P10635 whole entry): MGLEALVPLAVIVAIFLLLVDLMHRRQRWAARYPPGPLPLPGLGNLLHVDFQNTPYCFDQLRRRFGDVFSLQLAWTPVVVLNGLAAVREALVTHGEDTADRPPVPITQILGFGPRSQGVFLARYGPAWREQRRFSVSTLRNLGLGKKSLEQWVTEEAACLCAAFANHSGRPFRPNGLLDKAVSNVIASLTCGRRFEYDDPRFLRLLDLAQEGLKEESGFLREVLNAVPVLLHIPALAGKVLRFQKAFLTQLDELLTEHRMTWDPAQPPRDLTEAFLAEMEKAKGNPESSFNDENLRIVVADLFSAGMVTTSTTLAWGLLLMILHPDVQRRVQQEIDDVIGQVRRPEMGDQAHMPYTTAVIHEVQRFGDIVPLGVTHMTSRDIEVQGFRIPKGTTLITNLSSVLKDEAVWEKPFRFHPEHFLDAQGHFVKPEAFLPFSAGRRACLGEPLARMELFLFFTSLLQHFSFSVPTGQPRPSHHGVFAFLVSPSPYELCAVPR

[13] = 40 mg/m2, oral, 40 mg/m^2, n=10

Structure (SMILES): C/C(=C\c1csc(CN)n1)[C@@H]1C[C@@H]2O[C@]2(C)CCC[C@H](C)[C@H](O)[C@@H](C)C(=O)C(C)(C)[C@@H](O)CC(=O)O1 (relative stereo) [Compound A, [1S-[1R*,3R*(E),7R*,10S*,11R*,12R*,16S*]]-3-[2-[2-(aminomethyl)-4-thiazolyl]-1-methylethenyl]-7,11-dihydroxy-8,8,10,12,16-pentamethyl-4,17-dioxabicyclo[14.1.0]heptadecane-5,9-dione]
- IC50 (CYP1A2): > 70000 nM
- AUC [1, 13]: 631 ng·h/mL
- Cmax [1, 13]: 177 ng/mL
- half-life ([1]; 40 mg/m2, oral, 40 mg/m^2, n=10, read-out: Half-Life (SD) (converted)): 29.8 h
- Tmax ([1]; 40 mg/m2, oral, 40 mg/m^2, n=10, read-out: Tmax, median (minimum, maximum)): 1 h
- bioavailability ([1]; oral vs IV, 40 mg/m^2, n = 9, read-out: Bioavailability (SD)): 27%
- IC50 [2]: 0.9 to 3.5 nM
- MTD [3]: 10 mg/kg/inj
- LCK (gross log cell kill) ([3]; iv): 1.2
- rate of oxidative metabolism [4]: 0.07
- AUC (in vivo; mean AUC, vehicle 1 ethanol:water (10:90)): 133 ng·h/mL
- AUC (in vivo; mean AUC, vehicle 2 cremophor:ethanol:water (10:10:80)): 708 ng·h/mL
- AUC (in vivo; pH 7.4, mean AUC, vehicle 3 propylene glycol:ethanol:phosphate buffer pH 7.4 (40:5:55)): 210 ng·h/mL
- LCK ([5]; formulated in cremophor/ethanol/water (10:10:80, v/v/v)): 3.3
- LCK ([5]; formulated in sodium acetate buffer (30 mM, pH 5.0)): 3.4
- time for 5% drug loss (t95) ([6]; pH 2.5): < 0.2 h
- time for 5% drug loss (t95) ([6]; pH 7): approximately 14 h
- rate of oxidative metabolism [7]: 0.05 mmol/min/mg protein
- Vd (Pharmacokinetics in mice; mouse, plasma, IV 5 mg/kg, read-out: VSS): 38 L/kg
- bioavailability (Pharmacokinetics in mice; mouse, plasma, oral 15 mg/kg vs IV 5 mg/kg, read-out: absolute oral bioavailability): 21%
- CLT (Pharmacokinetics in mice; IV 5 mg/kg): 152 mL/min/kg
- T-HALF (Pharmacokinetics in mice; IV 5 mg/kg): 3.3 h
- T-HALF (Pharmacokinetics in mice; oral 15 mg/kg): 3.3 h
- water solubility [8]: highly water-soluble
- Tumor growth delay equivalent to LCK ([9]; 2 mg/kg): 0.1
- Tumor growth delay equivalent to LCK ([9]; 4 mg/kg): 0.7
- Tumor growth delay equivalent to LCK ([9]; 8 mg/kg): 1.1
- Tumor growth delay equivalent to LCK ([9]; 16 mg/kg): 1.7
- apparent steady-state concentrations ([10]; doses of 2 and 4 mg/kg, 10-h IV infusion, mouse plasma): 18-31 ng/mL and 35-60 nM
- MEC ([10]; estimated from plasma Css, 10-hr IV infusion, Pat-7 model): 35 to 60 nM
- increase in systemic exposure with cremophor vehicle [11]: about 4 fold
- IC50 (human CYP2C19): 2400 nM
- stable through freeze-thaw cycles ([12]; dog EDTA plasma): at least 3 freeze-thaw cycles
- stable in plasma prior to processing ([12]; dog EDTA plasma, 4EC): at least 4 h
- stable in frozen plasma ([12]; dog EDTA plasma, !20EC): at least 4 months
- stable in fresh whole blood ([12]; dog EDTA whole blood, 4EC): at least 1 h
- stable in an autosampler after processing ([12]; dog plasma samples, 4EC): at least 5 days
- increase in systemic exposure with cremophor vehicle (vehicle 2 compared to vehicle 1): about 3.4 fold
- increase in systemic exposure with cremophor vehicle (vehicle 2 compared to vehicle 3): ~5.3 fold
- IC50 (CYP2D6): > 70000 nM
